Patent US20240090547A1, “SWEETENER COMPOSITIONS COMPRISING MOGROSIDES AND USES THEREOF” (Firmenich Incorporated, priority 2021, published 2024)

What was measured:
Format in all cases: in vivo, human
panel of volunteers [1] = experiment: Sensory testing for apple drink (panel, in-mouth and aftertaste attributes); design: key to Sweetness / Delayed Sweetness / Bitterness / Lingering Sweetness / Overall Off-Taste / Licorice Aftertaste / Bitterness Aftertaste / Mouth Coating: 10-point scale; normalized per attribute to average Reb M scores; settings: for Bitterness / Delayed Sweetness / Global Flavor Intensity / Sweetness / Thickness/Body: in-mouth, average normalized score
Experimental: (§1) A panel of volunteers evaluated siamenoside I for in-mouth attributes (sweetness, delayed sweetness, sourness, bitterness, global flavor intensity, thickness/body, and astringence) and aftertaste (AT) attribtues (lingering sweetness, overall off-taste intensity, licorice off-tast, bitterness off-taste, and mouth coating) on a 10-point scale. Two replicate sessions were conducted, with a 20 minute break between sessions. There was a 90 second delay between samples within a session. Panelists evaluated all samples in a first session and evaluated the samples again a second time in a second session. Control samples of Rebaudioside M (Reb M) were evaluated during all sessions as a control. Mogroside V was also evaluated and sensory data for mogroside V is provided.
(§2) Data analysis was performed using 2-way analysis of variance (ANOVA) with interaction using Tukey's HSD test. The data was normalized for each attribute according to average scores for Reb M.
The average normalized in-mouth attributes for each sample of apple drink containing siamenoside I was evaluated below.
The average sweetness for each sample of apple drink containing siamenoside I was evaluated below.

panel of flavorists [2] = experiment: Additional sensory testing for lemon-flavored (lemon-lime) beverage, flavorist panel; settings: 600 ppm mogrosides, 0 to 10 scale, letter in parentheses = Duncan's test group
Experimental: (§3) A panel of flavorists at three locations evaluated lemon-lime beverage various mogrosides at a concentration of 600 ppm mogrosides for in-mouth attributes (peak sweetness, upfront sweetness, bitterness, and mouthfeel/thickness) and aftertaste attributes (sweet taste linger), on a 0 to 10 scale. The in-mouth attributes were evaluated while holding the sample in the mouth, while the aftertaste attributes were evaluated after expectoration.

panel of volunteers [3] = experiment: Sensory testing for lemon-lime carbonated soft drink; design: key to Sweetness / Delayed Sweetness / Bitterness / Lingering Sweetness / Overall Off-Taste / Licorice Aftertaste / Bitterness Aftertaste: 10-point scale; scores normalized to average Reb M scores
Experimental: as §1, §2
A panel of volunteers evaluated the siamenoside I-containing lemon-lime carbonated soft drink for in-mouth attributes and aftertaste attributes according to the methods described in Example 1 above.
The average normalized in-mouth attributes for a sample of lemon-lime carbonated soft drink having […] was evaluated below.
The average normalized aftertaste attributes for a sample of lemon-lime carbonated soft drink having siamenoside I was evaluated below.

panel of volunteers [4] = experiment: Sensory testing for vanilla milk; settings: for Licorice Aftertaste / Lingering Sweetness / Mouth Coating / Overall Off-Taste: aftertaste
Experimental: as §1, §2
A panel of volunteers evaluated vanilla milk for in-mouth attributes and aftertaste attributes according to the methods described in Example 1 above.
The average normalized in-mouth attributes for each sample of vanilla milk was evaluated and the results are provided below.
The average normalized aftertaste attributes for each sample of vanilla milk containing siamenoside I was evaluated and the results are provided below.

panel of volunteers [5] = experiment: Sensory testing for sparkling orange beverage
Experimental: as §1, §2
A panel of volunteers evaluated a sparkling orange beverage containing siamenodie I for in-mouth attributes and aftertaste attributes according to the methods described in Example 1 above.
The average normalized in-mouth attributes for a sample of sparkling orange beverage containing siamenoside I was evaluated and the results are provided below.
The average normalized aftertaste attributes for a sample of sparkling orange beverage containing siamenoside I was evaluated and the results are provided below.

expert panelists = experiment: Expert panelists' comparison of mogrosides with stevia; settings: 'Examples 4 and 5', in words
panel of flavorists [6] = experiment: Additional sensory testing for vanilla milk, flavorist panel; settings: 400 ppm mogrosides, 0 to 10 scale, letter in parentheses = Duncan's test group
Experimental: as §3, with “vanilla milk containing” for “lemon-lime beverage”, “400” for “600”, “expectoration. The data was analyzed using Duncan's new multiple range test and the scores are provided in the data below in parentheses.” for “expectoration.”

[7] = 250 ppm (mogroside V 250 mg [sic]), aftertaste, 10-point scale
[8] = 250 ppm (mogroside V 250 mg [sic]), 10-point scale
[9] = 500 ppm (mogroside V 500 mg [sic]), aftertaste, 10-point scale
[10] = 500 ppm (mogroside V 500 mg [sic]), 10-point scale
[11] = aftertaste, after expectoration
[12] = 600 ppm (mogroside V 600 mg [sic]), aftertaste, average normalized score, 10-point scale
[13] = 600 ppm (mogroside V 600 mg [sic]), in-mouth, average normalized score, 10-point scale
[14] = 200 ppm (mogroside V 200 mg [sic]), average normalized score, 10-point scale
[15] = 200 ppm (mogroside V 200 mg [sic]), in-mouth, average normalized score, 10-point scale
[16] = 400 ppm (mogroside V 400 mg [sic]), average normalized score, 10-point scale
[17] = 400 ppm (mogroside V 400 mg [sic]), in-mouth, average normalized score, 10-point scale
[18] = at both 200 ppm and 400 ppm, in words
[19] = orange sparkling beverage, in words
[20] = sparkling orange beverage, 250 ppm (mogroside V 250 mg [sic]), aftertaste, average normalized score, 10-point scale
[21] = sparkling orange beverage, 250 ppm (mogroside V 250 mg [sic]), in-mouth, average normalized score, 10-point scale

C[C@H](CC[C@@H](O[C@@H]1O[C@H](CO[C@@H]2O[C@H](CO)[C@@H](O)[C@H](O)[C@H]2O)[C@@H](O)[C@H](O)[C@H]1O[C@@H]1O[C@H](CO)[C@@H](O)[C@H](O)[C@H]1O)C(C)(C)O)[C@H]1CC[C@@]2(C)[C@@H]3CC=C4[C@@H](CC[C@H](O[C@@H]5O[C@H](CO)[C@@H](O)[C@H](O)[C@H]5O)C4(C)C)[C@]3(C)[C@H](O)C[C@]12C [siamenoside I]
Bitterness Aftertaste (panel of volunteers [1]; [7]): 1.3 | Licorice Aftertaste (panel of volunteers [1]; [7]): 2.2 | Lingering Sweetness (panel of volunteers [1]; [7]): 3.2 | Overall Off-Taste (panel of volunteers [1]; [7]): 2.5 | Bitterness (panel of volunteers [1]; [8]): 1.5 | Delayed Sweetness (panel of volunteers [1]; [8]): 2.3 | Global Flavor Intensity (panel of volunteers [1]; [8]): 3.5 | Sweetness (panel of volunteers [1]; [8]): 4.0 | Thickness/Body (panel of volunteers [1]; [8]): 1.2 | Licorice Aftertaste (panel of volunteers [1]; [9]): 2.7 | Lingering Sweetness (panel of volunteers [1]; [9]): 4.7 | Mouth Coating (panel of volunteers [1]; [9]): 2.4 | Overall Off-Taste (panel of volunteers [1]; [9]): 3.4 | Bitterness (panel of volunteers [1]; [10]): 1.7 | Delayed Sweetness (panel of volunteers [1]; [10]): 3.2 | Global Flavor Intensity (panel of volunteers [1]; [10]): 4.4 | Sweetness (panel of volunteers [1]; [10]): 5.3 | Thickness/Body (panel of volunteers [1]; [10]): 1.6 | global flavor intensity compared with mogroside V (panel of volunteers [1]; in words): higher global flavor intensity | in-mouth and aftertaste profile compared with Reb M (panel of volunteers [1]; in words): comparable to that of Reb M | overall off-taste compared with mogroside V (panel of volunteers [1]; in words): lower overall off-taste | sweetness compared with mogroside V (panel of volunteers [1]; in words): sweeter | Sweet Linger (panel of flavorists [2]; [11]): 4.429 (bc) | Bitterness (panel of flavorists [2]; in-mouth): 2.571 (a) | Mouthfeel/Thickness (panel of flavorists [2]; in-mouth): 3.429 (ab) | Peak Sweetness (panel of flavorists [2]; in-mouth): 6.571 (b)— | Upfront Sweetness (panel of flavorists [2]; in-mouth): 4.286 (b) | Bitterness Aftertaste (panel of volunteers [3]; [12]): 1.3 | Licorice Aftertaste (panel of volunteers [3]; [12]): 3.0 | Lingering Sweetness (panel of volunteers [3]; [12]): 4.4 | Overall Off-Taste (panel of volunteers [3]; [12]): 4.1 | Bitterness (panel of volunteers [3]; [13]): 1.6 | Delayed Sweetness (panel of volunteers [3]; [13]): 4.1 | Global Flavor Intensity (panel of volunteers [3]; [13]): 4.7 | Sweetness (panel of volunteers [3]; [13]): 6.0 | bitterness compared with Reb M (panel of volunteers [3]; 600 ppm, in words): overall lower bitterness | global flavor intensity compared with Reb M (panel of volunteers [3]; 600 ppm, in words): same | sweetness compared with Reb M (panel of volunteers [3]; 600 ppm, in words): same | bitterness aftertaste compared with mogroside V (panel of volunteers [3]; in words): lower bitterness aftertaste | bitterness compared with mogroside V (panel of volunteers [3]; in words): lower bitterness | global flavor intensity compared with mogroside V (panel of volunteers [3]; in words): higher global flavor intensity | in mouth and aftertaste profile compared with Reb M (panel of volunteers [3]; in words): comparable to that of Reb M | sweetness compared with mogroside V (panel of volunteers [3]; in words): higher sweetness | Licorice Aftertaste (panel of volunteers [4]; [14]): 1.2 | Lingering Sweetness (panel of volunteers [4]; [14]): 3.3 | Mouth Coating (panel of volunteers [4]; [14]): 3.3 | Overall Off-Taste (panel of volunteers [4]; [14]): 1.8 | Astringence (panel of volunteers [4]; [15]): 0.7 | Delayed Sweetness (panel of volunteers [4]; [15]): 2.2 | Fattiness (panel of volunteers [4]; [15]): 3.5 | Sourness (panel of volunteers [4]; [15]): 1.1 | Sweetness (panel of volunteers [4]; [15]): 5.6 | Licorice Aftertaste (panel of volunteers [4]; [16]): 1.7 | Lingering Sweetness (panel of volunteers [4]; [16]): 4.8 | Mouth Coating (panel of volunteers [4]; [16]): 0.5 | Overall Off-Taste (panel of volunteers [4]; [16]): 2.4 | Astringence (panel of volunteers [4]; [17]): 0.8 | Bitterness (panel of volunteers [4]; [17]): 0.8 | Delayed Sweetness (panel of volunteers [4]; [17]): 2.6 | Fattiness (panel of volunteers [4]; [17]): 4.3 | Global Flavor Intensity (panel of volunteers [4]; [17]): 4.6 | Sourness (panel of volunteers [4]; [17]): 0.7 | Sweetness (panel of volunteers [4]; [17]): 7.7 | lingering sweetness compared with Reb M (panel of volunteers [4]; [18]): increased | sweetness compared with Reb M (panel of volunteers [4]; [18]): increased | bitterness compared with mogroside V (panel of volunteers [4]; in words): lower bitterness | delayed sweetness compared with mogroside V (panel of volunteers [4]; in words): higher | global flavor intensity compared with mogroside V (panel of volunteers [4]; in words): higher global flavor intensity | sweetness compared with mogroside V (panel of volunteers [4]; in words): higher | delayed sweetness compared with Reb M (panel of volunteers [5]; [19]): slightly higher | in mouth and aftertaste profile compared with Reb M (panel of volunteers [5]; [19]): comparable to that of Reb M | sweetness compared with Reb M (panel of volunteers [5]; [19]): slightly higher | sweetness compared with mogroside V (panel of volunteers [5]; [19]): higher sweetness | Licorice Aftertaste (panel of volunteers [5]; [20]): 2.8 | Lingering Sweetness (panel of volunteers [5]; [20]): 4.4 | Mouth Coating (panel of volunteers [5]; [20]): 2.9 | Overall Off-Taste (panel of volunteers [5]; [20]): 3.6 | Delayed Sweetness (panel of volunteers [5]; [21]): 3.7 | Sweetness (panel of volunteers [5]; [21]): 5.9 | bitter aftertaste compared with stevia (expert panelists): lower bitter aftertaste | licorice aftertaste compared with stevia (expert panelists): lower licorice aftertaste | mouthfeel compared with stevia (expert panelists): better mouthfeel | Sweet Linger (panel of flavorists [6]; [11]): 5.875 (a) | Bitterness (panel of flavorists [6]; in-mouth): 1.688 (a) | Mouthfeel/Thickness (panel of flavorists [6]; in-mouth): 5.000 (ab) | Peak Sweetness (panel of flavorists [6]; in-mouth): 7.375 (a)— | Upfront Sweetness (panel of flavorists [6]; in-mouth): 5.938 (ab)
